# Values of other authors as cited in patent US11364187B2, “Compositions and methods for preventing and reversing aspects of aging” (CENTERS FOR AGE CONTROL, INC., priority 2017, dated 2022).
# Columns and labels:
# [1] = human body
# [2] = topically applied
# SIRT1 enzyme = target: T1, SIRT1 enzyme (Homo sapiens, UniProt Q96EB6); details: in vitro
# T1 sequence (Q96EB6 1-747): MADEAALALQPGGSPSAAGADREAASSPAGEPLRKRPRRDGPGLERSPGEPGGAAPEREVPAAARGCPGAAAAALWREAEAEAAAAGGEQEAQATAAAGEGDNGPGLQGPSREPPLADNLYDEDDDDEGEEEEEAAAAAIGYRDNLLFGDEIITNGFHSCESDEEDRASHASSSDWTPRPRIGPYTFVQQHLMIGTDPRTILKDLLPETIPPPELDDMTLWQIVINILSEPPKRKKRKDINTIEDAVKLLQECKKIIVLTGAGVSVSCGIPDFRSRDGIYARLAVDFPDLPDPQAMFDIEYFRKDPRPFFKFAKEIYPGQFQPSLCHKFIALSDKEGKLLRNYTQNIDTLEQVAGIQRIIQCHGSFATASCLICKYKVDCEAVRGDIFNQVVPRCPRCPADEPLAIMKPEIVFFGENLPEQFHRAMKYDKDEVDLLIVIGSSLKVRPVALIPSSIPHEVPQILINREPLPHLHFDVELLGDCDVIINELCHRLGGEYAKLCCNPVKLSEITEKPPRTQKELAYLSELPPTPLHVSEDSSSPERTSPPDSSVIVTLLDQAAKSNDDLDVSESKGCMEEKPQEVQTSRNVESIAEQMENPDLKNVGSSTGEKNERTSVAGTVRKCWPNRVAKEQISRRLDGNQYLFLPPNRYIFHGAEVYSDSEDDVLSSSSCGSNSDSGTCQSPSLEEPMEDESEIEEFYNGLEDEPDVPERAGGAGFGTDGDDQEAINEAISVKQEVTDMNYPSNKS
# [3] = 60 year old human equivalent mice, one week of injections
compound,measurement,setting,value
COc1cc(/C=C/c2ccc(O)cc2)cc(OC)c1 [Pterostilbene],absorption,[1],about 80%
same,absorption relative to resveratrol,[1],about four times more effectively
NC(=O)c1cccnc1 [nicotinamide],wrinkles and dark spots on skin,[2],reduces the wrinkles and dark spots on skin
same,effect on SIRT1 enzyme,SIRT1 enzyme,direct inhibitor of SIRT1 enzyme in vitro
"NC(=O)c1ccc[n+]([C@@H]2O[C@H](COP(=O)([O-])O)[C@@H](O)[C@H]2O)c1 [NMN, nicotinamide mono nucleotide]",muscle tissue age appearance,[3],muscle tissue resembling 20 years old
